From US4428938A, “Peptides affecting the immune regulation and a process for their preparation” (Richter Gedeon Vegyeszeti Gyar Rt., priority 1981, dated 1984)
Non-standard residues stand in square brackets, D forms with d. Residues, ends and D or L forms follow the SMILES beside them. pGlu = O=C1CC[C@@H](C(=O)O)N1

What was measured:
[1] = tested on: lymphocytes of patients suffering from rheumatoid arthritis; experiment: Active E-rosette test, lymphocytes of rheumatoid arthritis patients; assay type: cell-based, human; conditions: for E-rosette forming activity, percentage amount of active lymphocytes: n = 4
Experimental: (§1) The active E-rosette test was carried out according to a modified method of Wybran et al [Wybran et al: New Engl. J. Med. 292, 475 (1975)] by the lymphocites of healthy and autoimmune patients (rheumatoid arthritis and systemic lupus erythematosus). To 50 μl of a lymphocyte cell suspension 10^-3 -10^-11 moles/lit. solutions of the test material were added and the mixture was incubated in an atmosphere containing 5.0% of carbon dioxide, at 37° C. for 60 minutes. Thereafter 50 μlit. of a 1% sheep erythrocite suspension were added and the mixture was centrifuged at 1000 r.p.m. for 10 minutes followed by shaking with a modified Gallenkampf-shaker (shaking time: 30 sec, stroke: 8 cm, shaking frequency: 65/min.). The rosettes were fixed with a 0.1% glutaric aldehyde (50 μlit. for each tube, 3 min.). Lymphocytes bonding more than three sheep erythrocite were counted under a microscope and 4×100 cells were evaluated. The separated lymphocytes contain macrophages and polymorphonuclear cells (up to 10%) as an impurity. The number of the cells forming the rosettes was corrected by this value each case.

[2] = tested on: lymphocytes of healthy persons; experiment: Active E-rosette test, lymphocytes of healthy persons; assay type: cell-based, human; conditions: for E-rosette forming activity, percentage amount of active lymphocytes: n = 4
Experimental: as §1

| Compound | E-rosette forming activity, percentage amount of active lymphocytes ([1]; 10^-3 moles/liter) [%] | E-rosette forming activity, percentage amount of active lymphocytes ([1]; 10^-5 moles/liter) [%] | E-rosette forming activity, percentage amount of active lymphocytes ([1]; 10^-7 moles/liter) [%] | E-rosette forming activity, percentage amount of active lymphocytes ([1]; 10^-9 moles/liter) [%] | E-rosette forming activity, percentage amount of active lymphocytes ([1]; 10^-11 moles/liter) [%] | E-rosette forming activity, percentage amount of active lymphocytes ([2]; 10^-3 moles/liter) [%] | E-rosette forming activity, percentage amount of active lymphocytes ([2]; 10^-5 moles/liter) [%] | E-rosette forming activity, percentage amount of active lymphocytes ([2]; 10^-7 moles/liter) [%] | E-rosette forming activity, percentage amount of active lymphocytes ([2]; 10^-9 moles/liter) [%] | Effect on E-rosette forming activity (in words) ([2]; 10^-11 moles/lit.) | E-rosette forming activity, percentage amount of active lymphocytes ([2]; 10^-11 moles/liter) [%] | Effect on E-rosette forming activity (in words) ([1]; 10^-5 moles/lit.) | Effect on E-rosette forming activity (in words) ([2]; 10^-9 moles/lit.) | Effect on E-rosette forming activity (in words) ([1]; 10^-9 moles/lit.) | Effect on E-rosette forming activity (in words) ([1]; 10^-11 moles/lit.) |
| --- | --- | --- | --- | --- | --- | --- | --- | --- | --- | --- | --- | --- | --- | --- | --- |
| N=C(N)NCCC[C@H](NC(=O)[C@@H]1CCC(=O)N1)C(=O)N[C@@H](CCCCN)C(=O)N[C@@H](CC(=O)O)C(=O)O [Glp--Arg--Lys--Asp, Glp-Arg-Lys-Asp] ([pGlu]RKD-OH) | 20.6 | 18.7 | 19.5 | 19.7 | 18.4 | 29.1 | 33.8 | 35.1 | 26.6 | stimulating effect | 38.1 |  |  |  |  |
| CC(C)[C@H](NC(=O)[C@H](CC(N)=O)NC(=O)[C@H](CCCCN)NC(=O)[C@@H](N)CCCNC(=N)N)C(=O)O [compound No. 9] (H-RKNV-OH) |  |  |  |  |  |  |  |  |  |  |  | significant inhibiting activity |  |  |  |
| CC(C)[C@H](NC(=O)[C@H](C)NC(=O)[C@H](CCCCN)NC(=O)[C@@H](N)CCCNC(=N)N)C(=O)O [Arg--Lys--Ala--Val, Arg-Lys-Ala-Val] (H-RKAV-OH) | 20.3 | 23.4 | 21.7 | 25.5 | 23.1 | 33.3 | 30.5 | 35.8 | 34.5 |  | 30.9 |  |  |  |  |
| CC(C)[C@H](NC(=O)[C@H](CCCCN)NC(=O)[C@H](CC(=O)O)NC(=O)[C@@H](N)CCCNC(=N)N)C(=O)O [Arg--Asp--Lys--Val, Arg-Asp-Lys-Val] (H-RDKV-OH) | 25.4 | 26.2 | 26.4 | 27.3 | 27.5 | 34.2 | 37.5 | 37.7 | 40.4 |  | 36.4 |  | significant stimulating effect |  |  |
| CC(C)[C@H](NC(=O)[C@H](CC(=O)O)NC(=O)[C@H](CCCNC(=N)N)NC(=O)[C@@H](N)CCCCN)C(=O)O [Lys--Arg--Asp--Val, Lys-Arg-Asp-Val] (H-KRDV-OH) | 23.6 | 25.8 | 21.2 | 25.7 | 26.6 | 31.5 | 25.6 | 30.0 | 29.1 |  | 32.9 |  |  | significantly stimulated | stimulating effect |
| CC(C)[C@H](NC(=O)[C@H](CCC(=O)O)NC(=O)[C@H](CCCCN)NC(=O)[C@@H](N)CCCNC(=N)N)C(=O)O [Arg--Lys--Glu--Val, Arg-Lys-Glu-Val] (H-RKEV-OH) |  |  |  |  |  | 33.2 | 32.9 | 36.2 | 35.4 |  | 33.0 |  |  |  |  |
| CC(C)[C@H](NC(=O)[C@H](CC(N)=O)NC(=O)[C@H](CCCCN)NC(=O)[C@@H](N)CCCNC(=N)N)C(=O)O [Arg--Lys--Asn--Val, Arg-Lys-Asn-Val] (H-RKNV-OH) | 22.3 | 21.9 | 24.6 | 23.7 | 24.3 | 35.5 | 39.1 |  | 35.4 |  | 36.7 |  |  |  |  |
| CC(C)[C@H](NC(=O)[C@H](CC(=O)O)NC(=O)[C@H](C)NC(=O)[C@@H](N)CCCNC(=N)N)C(=O)O [Arg--Ala--Asp--Val, Arg-Ala-Asp-Val] (H-RADV-OH) | 21.8 | 20.2 | 19.8 | 20.7 | 22.5 | 32.5 | 33.4 | 32.4 | 38.2 |  | 36.0 |  |  |  |  |
| CC[C@H](C)[C@H](NC(=O)[C@H](CC(=O)O)NC(=O)[C@H](CCCCN)NC(=O)[C@@H](N)CCCNC(=N)N)C(=O)O [Arg--Lys--Asp--Ile, Arg-Lys-Asp-Ile] (H-RKDI-OH) | 25.5 | 25.4 | 23.2 | 28.7 | 24.5 | 35.5 | 32.0 | 34.9 | 35.0 |  | 30.7 |  |  |  |  |
| N=C(N)NCCC[C@H](NC(=O)[C@@H]1CCC(=O)N1)C(=O)N[C@@H](CCCCN)C(=O)N[C@@H](CC(=O)O)C(=O)O [compound No. 8] ([pGlu]RKD-OH) |  |  |  |  |  |  |  |  |  |  |  | significant inhibiting activity |  |  |  |
